Measurements taken from the NIST ThermoML archive (doi:10.1021/acs.jced.9b00846).

Settings: Liquid, Vibrating tube method

CCC(C)CC [3-methylpentane]
Settings | mass density [kg/m3]
283.15 K, 96 kPa | 673.7
283.15 K, 4984 kPa | 678.4
283.15 K, 9983 kPa | 682.9
283.15 K, 14976 kPa | 687.2
283.15 K, 20022 kPa | 691.2
283.15 K, 25054 kPa | 695
283.15 K, 29951 kPa | 698.6
283.15 K, 35044 kPa | 702.1
283.15 K, 40019 kPa | 705.4
283.15 K, 45032 kPa | 708.6
283.15 K, 50012 kPa | 711.7
283.15 K, 54940 kPa | 714.6
283.15 K, 59937 kPa | 717.5
283.15 K, 64969 kPa | 720.3
288.15 K, 123 kPa | 669.3
288.15 K, 4981 kPa | 674.1
288.15 K, 10014 kPa | 678.9
288.15 K, 14991 kPa | 683.2
288.15 K, 19942 kPa | 687.3
288.15 K, 25033 kPa | 691.3
288.15 K, 29989 kPa | 695
288.15 K, 35037 kPa | 698.6
288.15 K, 39987 kPa | 701.9
288.15 K, 45029 kPa | 705.2
288.15 K, 50061 kPa | 708.4
288.15 K, 54941 kPa | 711.3
288.15 K, 59951 kPa | 714.3
288.15 K, 65035 kPa | 717.1
293.15 K, 98 kPa | 664.7
293.15 K, 4913 kPa | 669.7
293.15 K, 9979 kPa | 674.6
293.15 K, 14916 kPa | 679.1
293.15 K, 19985 kPa | 683.5
293.15 K, 24964 kPa | 687.5
293.15 K, 30011 kPa | 691.3
293.15 K, 34951 kPa | 694.9
293.15 K, 40003 kPa | 698.4
293.15 K, 45015 kPa | 701.8
293.15 K, 49957 kPa | 705
293.15 K, 54949 kPa | 708.1
293.15 K, 60008 kPa | 711.1
293.15 K, 65001 kPa | 714
298.15 K, 123 kPa | 660.1
298.15 K, 4936 kPa | 665.3
298.15 K, 9999 kPa | 670.4
298.15 K, 15031 kPa | 675.1
298.15 K, 20036 kPa | 679.5
298.15 K, 25016 kPa | 683.7
298.15 K, 29992 kPa | 687.6
298.15 K, 34973 kPa | 691.3
298.15 K, 40043 kPa | 694.9
298.15 K, 45008 kPa | 698.3
298.15 K, 49987 kPa | 701.6
298.15 K, 54938 kPa | 704.8
298.15 K, 59982 kPa | 707.8
298.15 K, 65001 kPa | 710.8
303.15 K, 106 kPa | 655.4
303.15 K, 4970 kPa | 660.9
303.15 K, 9996 kPa | 666.1
303.15 K, 15043 kPa | 671.1
303.15 K, 20006 kPa | 675.6
303.15 K, 25024 kPa | 679.9
303.15 K, 29956 kPa | 683.9
303.15 K, 34990 kPa | 687.7
303.15 K, 39963 kPa | 691.4
303.15 K, 44991 kPa | 694.9
303.15 K, 49940 kPa | 698.2
303.15 K, 54932 kPa | 701.5
303.15 K, 59961 kPa | 704.6
303.15 K, 65012 kPa | 707.7
308.15 K, 109 kPa | 650.6
308.15 K, 4967 kPa | 656.3
308.15 K, 10001 kPa | 661.8
308.15 K, 14988 kPa | 666.8
308.15 K, 19945 kPa | 671.5
308.15 K, 25037 kPa | 676
308.15 K, 29968 kPa | 680.1
308.15 K, 35020 kPa | 684
308.15 K, 39963 kPa | 687.8
308.15 K, 44985 kPa | 691.4
308.15 K, 49992 kPa | 694.8
308.15 K, 54921 kPa | 698.1
308.15 K, 60008 kPa | 701.4
308.15 K, 64999 kPa | 704.4
313.15 K, 117 kPa | 645.9
313.15 K, 4981 kPa | 651.9
313.15 K, 9993 kPa | 657.5
313.15 K, 15145 kPa | 662.9
313.15 K, 20027 kPa | 667.6
313.15 K, 25088 kPa | 672.2
313.15 K, 30012 kPa | 676.4
313.15 K, 35003 kPa | 680.4
313.15 K, 40042 kPa | 684.3
313.15 K, 45054 kPa | 688
313.15 K, 49996 kPa | 691.5
313.15 K, 54926 kPa | 694.8
313.15 K, 60053 kPa | 698.2
313.15 K, 65063 kPa | 701.3
318.15 K, 107 kPa | 641.1
318.15 K, 4955 kPa | 647.4
318.15 K, 9991 kPa | 653.3
318.15 K, 15039 kPa | 658.8
318.15 K, 20021 kPa | 663.7
318.15 K, 25060 kPa | 668.4
318.15 K, 29991 kPa | 672.8
318.15 K, 34997 kPa | 676.9
318.15 K, 40044 kPa | 680.9
318.15 K, 44936 kPa | 684.6
318.15 K, 49998 kPa | 688.3
318.15 K, 55010 kPa | 691.7
318.15 K, 59996 kPa | 695.1
318.15 K, 65008 kPa | 698.3
323.15 K, 106 kPa | 636.3
323.15 K, 4980 kPa | 642.9
323.15 K, 9966 kPa | 649
323.15 K, 15009 kPa | 654.6
323.15 K, 20016 kPa | 659.8
323.15 K, 24987 kPa | 664.6
323.15 K, 30019 kPa | 669.1
323.15 K, 34996 kPa | 673.3
323.15 K, 40041 kPa | 677.4
323.15 K, 44988 kPa | 681.2
323.15 K, 49949 kPa | 684.9
323.15 K, 55004 kPa | 688.5
323.15 K, 59997 kPa | 691.8
323.15 K, 64995 kPa | 695.1
328.15 K, 4974 kPa | 638.3
328.15 K, 9983 kPa | 644.6
328.15 K, 14977 kPa | 650.4
328.15 K, 20010 kPa | 655.8
328.15 K, 25021 kPa | 660.8
328.15 K, 29956 kPa | 665.4
328.15 K, 34961 kPa | 669.7
328.15 K, 40039 kPa | 673.9
328.15 K, 45005 kPa | 677.9
328.15 K, 50036 kPa | 681.7
328.15 K, 54981 kPa | 685.2
328.15 K, 60023 kPa | 688.7
328.15 K, 65018 kPa | 692
333.15 K, 4969 kPa | 633.7
333.15 K, 9932 kPa | 640.2
333.15 K, 15031 kPa | 646.3
333.15 K, 19959 kPa | 651.8
333.15 K, 25022 kPa | 657
333.15 K, 29983 kPa | 661.7
333.15 K, 34948 kPa | 666.1
333.15 K, 39982 kPa | 670.4
333.15 K, 45015 kPa | 674.5
333.15 K, 49968 kPa | 678.3
333.15 K, 54981 kPa | 682
333.15 K, 59935 kPa | 685.5
333.15 K, 65077 kPa | 689
338.15 K, 5021 kPa | 629
338.15 K, 10019 kPa | 635.9
338.15 K, 15009 kPa | 642.1
338.15 K, 20030 kPa | 647.8
338.15 K, 25053 kPa | 653.1
338.15 K, 29999 kPa | 658
338.15 K, 34951 kPa | 662.6
338.15 K, 39974 kPa | 667
338.15 K, 45053 kPa | 671.2
338.15 K, 49966 kPa | 675.1
338.15 K, 54970 kPa | 678.8
338.15 K, 59984 kPa | 682.5
338.15 K, 65015 kPa | 685.9
343.15 K, 5000 kPa | 624.2
343.15 K, 10002 kPa | 631.4
343.15 K, 15025 kPa | 637.8
343.15 K, 20016 kPa | 643.7
343.15 K, 24973 kPa | 649.1
343.15 K, 29947 kPa | 654.2
343.15 K, 34977 kPa | 658.9
343.15 K, 39962 kPa | 663.4
343.15 K, 44924 kPa | 667.6
343.15 K, 50034 kPa | 671.8
343.15 K, 54984 kPa | 675.6
343.15 K, 59973 kPa | 679.3
343.15 K, 65018 kPa | 682.9
348.15 K, 4999 kPa | 619.4
348.15 K, 10005 kPa | 626.9
348.15 K, 15001 kPa | 633.6
348.15 K, 19997 kPa | 639.7
348.15 K, 24983 kPa | 645.3
348.15 K, 30044 kPa | 650.6
348.15 K, 34962 kPa | 655.3
348.15 K, 40008 kPa | 660
348.15 K, 44956 kPa | 664.3
348.15 K, 50006 kPa | 668.4
348.15 K, 54987 kPa | 672.4
348.15 K, 59977 kPa | 676.1
348.15 K, 65005 kPa | 679.8
353.15 K, 4969 kPa | 614.4
353.15 K, 9927 kPa | 622.1
353.15 K, 14990 kPa | 629.2
353.15 K, 20018 kPa | 635.5
353.15 K, 25032 kPa | 641.3
353.15 K, 29979 kPa | 646.6
353.15 K, 34952 kPa | 651.6
353.15 K, 39962 kPa | 656.4
353.15 K, 44947 kPa | 660.8
353.15 K, 49917 kPa | 665
353.15 K, 55013 kPa | 669.1
353.15 K, 59927 kPa | 672.9
353.15 K, 65026 kPa | 676.6
358.15 K, 4945 kPa | 609.3
358.15 K, 9952 kPa | 617.5
358.15 K, 15000 kPa | 624.7
358.15 K, 20004 kPa | 631.3
358.15 K, 25020 kPa | 637.3
358.15 K, 29990 kPa | 642.7
358.15 K, 34993 kPa | 647.8
358.15 K, 40000 kPa | 652.7
358.15 K, 44971 kPa | 657.2
358.15 K, 49932 kPa | 661.5
358.15 K, 54965 kPa | 665.6
358.15 K, 59980 kPa | 669.6
358.15 K, 65056 kPa | 673.4
363.15 K, 5004 kPa | 604.2
363.15 K, 9965 kPa | 612.8
363.15 K, 15052 kPa | 620.5
363.15 K, 19925 kPa | 627.1
363.15 K, 25013 kPa | 633.3
363.15 K, 29929 kPa | 638.9
363.15 K, 35008 kPa | 644.2
363.15 K, 39979 kPa | 649.1
363.15 K, 45062 kPa | 653.9
363.15 K, 50011 kPa | 658.2
363.15 K, 54995 kPa | 662.4
363.15 K, 60039 kPa | 666.4
363.15 K, 65041 kPa | 670.2
